Reference: patent US6881741B2 (ViroChem Pharma Inc., priority 2001, dated 2005)

Molecular target: recombinant HCV NS5B (HCV RNA-dependent RNA polymerase) (Hepatitis C virus genotype 1b, UniProt P26663)
Assay: biochemical
Conditions: HCV polymerase activity, list of compounds of Example 27; read-out: IC50 (polymerase activity)

Chain of recombinant HCV NS5B (HCV RNA-dependent RNA polymerase) (P26663 2420-3010 limits assumed): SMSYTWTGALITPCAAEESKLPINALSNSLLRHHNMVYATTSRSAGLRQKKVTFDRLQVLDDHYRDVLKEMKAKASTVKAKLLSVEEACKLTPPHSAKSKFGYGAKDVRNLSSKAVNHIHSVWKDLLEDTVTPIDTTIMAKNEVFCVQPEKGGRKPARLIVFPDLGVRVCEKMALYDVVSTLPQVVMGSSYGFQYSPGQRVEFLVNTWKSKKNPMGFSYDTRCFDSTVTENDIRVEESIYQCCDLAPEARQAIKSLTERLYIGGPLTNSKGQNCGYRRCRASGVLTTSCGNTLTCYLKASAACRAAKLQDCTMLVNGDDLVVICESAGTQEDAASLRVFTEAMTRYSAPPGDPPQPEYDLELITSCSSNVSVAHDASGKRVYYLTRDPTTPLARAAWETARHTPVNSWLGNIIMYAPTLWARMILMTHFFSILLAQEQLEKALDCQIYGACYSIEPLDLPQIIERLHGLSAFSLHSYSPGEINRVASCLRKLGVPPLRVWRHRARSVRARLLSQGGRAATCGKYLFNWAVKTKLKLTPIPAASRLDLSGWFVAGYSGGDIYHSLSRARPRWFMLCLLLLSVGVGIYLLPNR

Question: Which IC50 does the source give for `NC1CCCCC1N(C(=O)c1ccc(Cl)cc1Cl)c1cc(-c2ccccc2)sc1C(=O)O` (stereo not shown) [Compound 549, 2-[(2-CARBOXY-5-PHENYL-THIOPHEN-3-YL)- (2,4-DICHLORO-BENZOYL)-AMINO]- CYCLOHEXYL-AMMONIUM; CHLORIDE] here?
Answer: The IC50 was < 5 µM.

Question: For `COc1cc(C)c(S(=O)(=O)N2CC(C)=CCC2C(=O)N(c2cc(-c3ccccc3)sc2C(=O)O)C(C)C)c(C)c1C` (stereo not shown) [Compound 541, 3-(ISOPROPYL-[1-(4-METHOXY-2,3,6- TRIMETHYL-BENZENESULFONYL)-5- METHYL-1,2,3,6-TETRAHYDRO- PYRIDINE-2-CARBONYL]-AMINO)-5- PHENYL-THIOPHENE-2-CARBOXYLIC ACID], which IC50 is on record?
Answer: Its IC50 is 5 to 20 µM.

Question: How did the IC50 turn out when `COCC(C)N(C(=O)C1CCC(C)CC1)c1cc(-c2ccccc2)sc1C(=O)O` (stereo not shown) [Compound 578, 3-[(2-METHOXY-1-METHYL-ETHYL)-(4- METHYL-CYCLOHEXANECARBONYL)- AMINO]-5-PHENYL-THIOPHENE-2- CARBOXYLIC ACID] was run?
Answer: The IC50 was < 5 µM.

Question: How did the IC50 turn out when `CC(C)(C)OC(=O)N1CCCC(N(C(=O)c2ccc(Cl)cc2Cl)c2cc(-c3ccccc3)sc2C(=O)O)CC1` (stereo not shown) [Compound 507, 4-[(2-CARBOXY-5-PHENYL-THIOPHEN-3- YL)-(2,4-DICHLORO-BENZOYL)-AMINO]- AZEPANE-1-CARBOXYLIC ACID TERT!- BUTYL ESTER] was run?
Answer: The IC50 was < 5 µM.

Question: `Cc1ccc(C(=O)N(c2cc(-c3ccccc3)sc2C(=O)O)C(C)C)c(C(N)=O)c1` [Compound 474, 3-[(2-CARBAMOYL-4-METHYL-BENZOYL)- ISOPROPYL-AMINO]-5-PHENYL- THIOPHENE-2-CARBOXYLIC ACID] was tested. Which IC50 did it give?
Answer: Its IC50 is 5 to 20 µM.

Question: `Cc1ccc(S(=O)(=O)Nc2cc(-c3ccccc3)sc2C(=O)NC2CCC2)cc1` [Compound 567, 5-PHENYL-3-(TOLUENE-4- SULFONYLAMINO)-THIOPHENE-2- CARBOXYLIC ACID CYCLOBUTYLAMIDE] was tested. Which IC50 did it give?
Answer: The IC50 was 5 to 20 µM.

Question: For `CC(C)N(c1cc(-c2ccccc2)sc1C(=O)O)C(=O)[C@]1(C)CC[C@@H](C)CC1` [Compound 500, 3-[(1,4-DIMETHYL- CYCLOHEXANECARBONYL)-ISOPROPYL- AMINO]-5-PHENYL-THIOPHENE-2- CARBOXYLIC ACID], which IC50 is on record?
Answer: The IC50 was < 5 µM.

Question: For `CC(C)CC(=O)N(Cc1ccccc1Cl)c1cc(-c2ccccc2)sc1C(=O)O` [Compound 422, 3-[(2-CHLORO-BENZYL)-(3-METHYL- BUTYRYL)-AMINO]-5-PHENYL- THIOPHENE-2-CARBOXYLIC ACID], which IC50 is on record?
Answer: Its IC50 is 5 to 20 µM.

Same assay, conditions: related polymerase activity (Example 27 list); read-out: IC50

Question: How did the IC50 turn out when `O=C(O)c1sc(-c2ccc(F)cc2)cc1NS(=O)(=O)c1ccccn1` [Compound 133, 5-(4-FLUORO-PHENYL)-3-(PYRIDINE-2-SULFONYLAMINO)-THIOPHENE-2-CARBOXYLIC ACID] was run?
Answer: Its IC50 is < 5 µM.

Question: For `O=C(O)c1sc(-c2ccc(F)cc2)cc1NS(=O)(=O)c1ccc(F)cc1F` [Compound 110, 3-(2,4-DIFLUORO-BENZENESULFONYLAMINO)-5-(4-FLUORO-PHENYL)-THIOPHENE-2-CARBOXYLIC ACID], which IC50 is on record?
Answer: The IC50 was < 5 µM.

Question: How did the IC50 turn out when `Cc1c(S(=O)(=O)Nc2cc(-c3ccccc3)sc2C(=O)O)sc2ccc(Cl)cc12` [Compound 38, 3-(5-CHLORO-3-METHYL-BENZO[ B ]THIOPHENE-2-SULFONYLAMINO)-5-PHENYL-THIOPHENE-2-CARBOXYLIC ACID] was run?
Answer: The IC50 was < 5 µM.

Question: How did the IC50 turn out when `O=C(O)c1sc(-c2ccccc2)cc1NS(=O)(=O)c1c(F)cc(F)cc1F` [Compound 151, 5-PHENYL-3-(2,4,6-TRIFLUORO-BENZENESULFONYLAMINO)-THIOPHENE-2-CARBOXYLIC ACID] was run?
Answer: The IC50 was < 5 µM.

Question: With `CC(C)N(C(=O)c1cc(F)c(Cl)cc1F)c1cc(-c2ccccc2)sc1C(=O)O` [Compound 337, 3-[(4-CHLORO-2,5-DIFLUORO-BENZOYL)- ISOPROPYL-AMINO]-5-PHENYL- THIOPHENE-2-CARBOXYLIC ACID] as the compound, how does the IC50 read?
Answer: The IC50 was 5 to 20 µM.

Question: `O=C(O)c1sc(-c2ccccc2)cc1NS(=O)(=O)c1cccc(F)c1` [Compound 49, 3-(3-FLUORO-BENZENESULFONYLAMINO)-5-PHENYL-THIOPHENE-2-CARBOXYLIC ACID] was tested. Which IC50 did it give?
Answer: The IC50 was < 5 µM.

Question: How did the IC50 turn out when `Cc1ccc(C(=O)N(C)c2cc(-c3ccc(Cl)cc3)sc2C(=O)O)cc1` [Compound 192, 5-(4-CHLORO-PHENYL)-3-[METHYL-(4-METHYL-BENZOYL)-AMINO]-THIOPHENE-2-CARBOXYLIC ACID] was run?
Answer: Its IC50 is 5 to 20 µM.

Question: With `CCCCC(=O)N(C)c1cc(-c2ccccc2)sc1C(=O)O` [Compound 389, 3-(METHYL-PENTANOYL-AMINO)-5- PHENYL-THIOPHENE-2-CARBOXYLIC ACID] as the compound, how does the IC50 read?
Answer: The IC50 was < 5 µM.

Question: With `Cc1ccccc1S(=O)(=O)Nc1cc(-c2ccccc2C(=O)O)sc1C(=O)O` [Compound 115, 5-(2-CARBOXY-PHENYL)-3-(TOLUENE-2-SULFONYLAMINO)-THIOPHENE-2-CARBOXYLIC ACID] as the compound, how does the IC50 read?
Answer: The IC50 was 5 to 20 µM.

Question: For `CN(C(=O)c1ccc(Cl)cc1)c1cc(-c2ccccc2)sc1C(=O)O` [Compound 73, 3-[(4-CHLORO-BENZOYL)-METHYL-AMINO]-5-PHENYL-THIOPHENE-2-CARBOXYLIC ACID], which IC50 is on record?
Answer: The IC50 was < 5 µM.

Question: `Cc1ccc(C(=O)N(C)c2cc(-c3cccnc3)sc2C(=O)O)cc1` [Compound 302, 3-[METHYL-(4-METHYL-BENZOYL)- AMINO]-5-PYRIDIN-3-YL-THIOPHENE-2- CARBOXYLIC ACID] was tested. Which IC50 did it give?
Answer: The IC50 was 5 to 20 µM.

Question: Which IC50 does the source give for `Cc1ccccc1S(=O)(=O)Nc1cc(-c2nccs2)sc1C(=O)O` [Compound 178, 5-THIAZOL-2-YL-3-(TOLUENE-2-SULFONYLAMINO)-THIOPHENE-2-CARBOXYLIC ACID] here?
Answer: Its IC50 is < 5 µM.

Question: With `CC(C)N(C(=O)c1ccc(Cl)cc1Cl)c1cc(-c2cccc(C(F)(F)F)c2)sc1C(=O)O` [Compound 359, 3-[(2,4-DICHLORO-BENZOYL)- ISOPROPYL-AMINO]-5-(3- TRIFLUOROMETHYL-PHENYL)- THIOPHENE-2-CARBOXYLIC ACID] as the compound, how does the IC50 read?
Answer: The IC50 was < 5 µM.

Question: With `Cc1cccc(-c2cc(NS(=O)(=O)c3ccccc3C)c(C(=O)O)s2)c1` [Compound 64, 3-(TOLUENE-2-SULFONYLAMINO)-5-M-TOLYL-THIOPHENE-2-CARBOXYLIC ACID] as the compound, how does the IC50 read?
Answer: Its IC50 is < 5 µM.

Question: `O=C(O)c1sc(-c2ccccc2)cc1NC(=O)N1CCN(c2cccc(Cl)c2)CC1` [Compound 160, 3-{[4-(3-CHLORO-PHENYL)-PIPERAZINE-1-CARBONYL]-AMINO}-5-PHENYL-THIOPHENE-2-CARBOXYLIC ACID] was tested. Which IC50 did it give?
Answer: The IC50 was 5 to 20 µM.

Question: Which IC50 does the source give for `Cc1ccccc1S(=O)(=O)Nc1cc(-c2cccc(OC(F)(F)F)c2)sc1C(=O)O` [Compound 81, 3-(TOLUENE-2-SULFONYLAMINO)-5-(3-TRIFLUOROMETHOXY-PHENYL)-THIOPHENE-2-CARBOXYLIC ACID] here?
Answer: The IC50 was 5 to 20 µM.

Question: How did the IC50 turn out when `CCOC(=O)c1c(C)c(S(=O)(=O)Nc2cc(-c3ccccc3)sc2C(=O)O)c(-c2ccc(Cl)cc2)n1-c1ccccc1` [Compound 168, 4-(2-CARBOXY-5-PHENYL-THIOPHEN-3-YLSULFAMOYL)-5-(4-CHLORO-PHENYL)-3-METHYL-1-PHENYL-1H-PYRROLE-2-CARBOXYLIC ACID ETHYL ESTER] was run?
Answer: Its IC50 is 5 to 20 µM.

Question: `Cc1ccccc1S(=O)(=O)Nc1cc(C(=O)c2ccccc2)sc1C(=O)O` [Compound 82, 5-BENZOYL-3-(TOLUENE-2-SULFONYLAMINO)-THIOPHENE-2-CARBOXYLIC ACID] was tested. Which IC50 did it give?
Answer: The IC50 was 5 to 20 µM.

Question: Which IC50 does the source give for `Cc1ccc(C(=O)N(C)c2cc(-c3cccc(C)c3)sc2C(=O)O)cc1` [Compound 268, 3-[METHYL-(4-METHYL-BENZOYL)-AMINO]-5-M-TOLYL-THIOPHENE-2-CARBOXYLIC ACID] here?
Answer: Its IC50 is < 5 µM.

Question: `Cc1ccc(S(=O)(=O)N(c2cc(-c3ccccc3)sc2C(=O)O)C(C)C)c(C)c1` [Compound 240, 3-[(2,4-DIMETHYL-BENZENESULFONYL)-ISOPROPYL-AMINO]-5-PHENYL-THIOPHENE-2-CARBOXYLIC ACID] was tested. Which IC50 did it give?
Answer: The IC50 was 5 to 20 µM.
